Laboratory results published in publication PMC4505863 (ACS Chemical Neuroscience, 2014).

Assays:
[1] = molecular target: T1, 5-HT2A receptor (Homo sapiens, UniProt P28223); assay: h5-HT2A affinity, antagonist radioligand [3H]ketanserin; assay type: binding
[2] = molecular target: T1, 5-HT2A receptor; assay: h5-HT2A affinity, agonist radioligand [125I]DOI; assay type: binding
[3] = molecular target: T2, human 5-HT2C receptor (Homo sapiens, UniProt P28335); assay: h5-HT2C affinity, agonist radioligand [125I]DOI; assay type: binding
T2 sequence (P28335 33-458): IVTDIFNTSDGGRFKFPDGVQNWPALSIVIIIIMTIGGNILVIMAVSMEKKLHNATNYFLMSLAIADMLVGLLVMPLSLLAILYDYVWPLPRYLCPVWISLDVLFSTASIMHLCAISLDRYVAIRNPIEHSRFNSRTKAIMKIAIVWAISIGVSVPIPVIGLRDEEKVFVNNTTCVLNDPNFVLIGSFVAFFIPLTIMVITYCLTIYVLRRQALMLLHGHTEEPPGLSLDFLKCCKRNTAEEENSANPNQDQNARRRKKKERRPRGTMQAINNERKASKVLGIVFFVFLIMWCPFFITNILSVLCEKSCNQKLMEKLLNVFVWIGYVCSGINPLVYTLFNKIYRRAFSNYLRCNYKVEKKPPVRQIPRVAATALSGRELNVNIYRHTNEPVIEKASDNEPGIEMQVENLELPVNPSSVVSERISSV

[4] = molecular target: 5-HT2B (Homo sapiens, UniProt P41595); assay: PDSP screening affinity 5-HT2B; assay type: binding
Chain of 5-HT2B (P41595 whole entry): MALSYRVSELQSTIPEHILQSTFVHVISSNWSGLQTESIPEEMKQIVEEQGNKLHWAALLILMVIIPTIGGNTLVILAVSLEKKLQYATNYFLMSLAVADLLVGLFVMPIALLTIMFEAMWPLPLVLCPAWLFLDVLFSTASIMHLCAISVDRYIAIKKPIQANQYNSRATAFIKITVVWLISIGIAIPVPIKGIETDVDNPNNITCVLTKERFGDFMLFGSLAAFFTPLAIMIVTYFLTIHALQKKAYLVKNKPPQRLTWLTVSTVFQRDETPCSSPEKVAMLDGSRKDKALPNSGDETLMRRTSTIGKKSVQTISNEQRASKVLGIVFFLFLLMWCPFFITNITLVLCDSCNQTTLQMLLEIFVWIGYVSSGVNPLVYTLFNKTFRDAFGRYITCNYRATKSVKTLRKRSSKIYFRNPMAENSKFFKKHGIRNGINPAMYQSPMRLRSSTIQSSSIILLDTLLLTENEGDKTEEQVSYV

[5] = molecular target: T3, 5-HT1A (Homo sapiens, UniProt P08908); assay: PDSP screening affinity 5-HT1A; assay type: binding
T3 sequence (P08908 1-422): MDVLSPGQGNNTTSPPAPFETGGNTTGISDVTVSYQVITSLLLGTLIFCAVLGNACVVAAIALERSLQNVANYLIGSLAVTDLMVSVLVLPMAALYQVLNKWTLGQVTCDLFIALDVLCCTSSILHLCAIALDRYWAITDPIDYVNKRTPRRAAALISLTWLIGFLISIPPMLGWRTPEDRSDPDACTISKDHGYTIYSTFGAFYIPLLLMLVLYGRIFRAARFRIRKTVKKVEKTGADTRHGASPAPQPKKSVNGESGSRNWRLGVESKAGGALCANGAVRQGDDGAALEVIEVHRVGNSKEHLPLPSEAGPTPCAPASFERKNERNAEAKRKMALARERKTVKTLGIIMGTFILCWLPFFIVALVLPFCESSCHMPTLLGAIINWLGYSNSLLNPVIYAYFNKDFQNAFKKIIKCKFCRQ

[6] = molecular target: 5-HT1B (Homo sapiens, UniProt P28222); assay: PDSP screening affinity 5-HT1B; assay type: binding; conditions: 5-HT1B affinity
Chain of 5-HT1B (P28222 whole entry): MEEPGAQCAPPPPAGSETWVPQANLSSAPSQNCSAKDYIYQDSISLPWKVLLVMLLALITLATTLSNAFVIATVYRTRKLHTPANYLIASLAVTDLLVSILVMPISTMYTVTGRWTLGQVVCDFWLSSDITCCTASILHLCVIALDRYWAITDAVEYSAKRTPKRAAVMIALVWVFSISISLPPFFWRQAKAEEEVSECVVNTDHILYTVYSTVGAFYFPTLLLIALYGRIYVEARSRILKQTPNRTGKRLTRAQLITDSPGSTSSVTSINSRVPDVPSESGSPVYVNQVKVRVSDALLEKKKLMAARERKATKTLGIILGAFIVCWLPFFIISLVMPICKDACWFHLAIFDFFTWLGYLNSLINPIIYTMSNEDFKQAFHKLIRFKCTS

[7] = molecular target: 5-HT1D (Homo sapiens, UniProt P28221); assay: PDSP screening affinity 5-HT1D; assay type: binding
Chain of 5-HT1D (P28221 whole entry): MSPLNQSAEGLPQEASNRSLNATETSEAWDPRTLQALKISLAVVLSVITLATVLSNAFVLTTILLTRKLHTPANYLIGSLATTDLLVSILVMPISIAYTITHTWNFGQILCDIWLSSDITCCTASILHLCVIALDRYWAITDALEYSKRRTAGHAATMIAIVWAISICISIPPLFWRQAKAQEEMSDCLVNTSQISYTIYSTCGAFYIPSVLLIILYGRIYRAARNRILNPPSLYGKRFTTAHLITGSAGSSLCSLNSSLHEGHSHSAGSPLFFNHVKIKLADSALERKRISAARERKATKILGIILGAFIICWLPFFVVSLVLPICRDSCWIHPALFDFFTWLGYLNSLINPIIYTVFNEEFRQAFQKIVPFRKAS

[8] = molecular target: 5-ht1e (Homo sapiens, UniProt P28566); assay: PDSP screening affinity 5-ht1e; assay type: binding
Chain of 5-ht1e (P28566 whole entry): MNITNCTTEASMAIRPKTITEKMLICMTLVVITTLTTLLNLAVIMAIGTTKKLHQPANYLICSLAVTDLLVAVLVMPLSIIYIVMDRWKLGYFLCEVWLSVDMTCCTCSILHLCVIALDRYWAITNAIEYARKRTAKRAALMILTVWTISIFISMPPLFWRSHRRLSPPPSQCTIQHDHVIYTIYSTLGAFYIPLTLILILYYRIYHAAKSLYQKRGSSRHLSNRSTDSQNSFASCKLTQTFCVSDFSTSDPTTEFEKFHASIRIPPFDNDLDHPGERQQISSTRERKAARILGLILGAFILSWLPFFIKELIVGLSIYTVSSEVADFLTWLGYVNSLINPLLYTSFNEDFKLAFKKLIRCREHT

[9] = molecular target: T4, 5-HT3 (Homo sapiens, UniProt P46098); assay: PDSP screening affinity 5-HT3; assay type: binding
T4 sequence (P46098 24-478): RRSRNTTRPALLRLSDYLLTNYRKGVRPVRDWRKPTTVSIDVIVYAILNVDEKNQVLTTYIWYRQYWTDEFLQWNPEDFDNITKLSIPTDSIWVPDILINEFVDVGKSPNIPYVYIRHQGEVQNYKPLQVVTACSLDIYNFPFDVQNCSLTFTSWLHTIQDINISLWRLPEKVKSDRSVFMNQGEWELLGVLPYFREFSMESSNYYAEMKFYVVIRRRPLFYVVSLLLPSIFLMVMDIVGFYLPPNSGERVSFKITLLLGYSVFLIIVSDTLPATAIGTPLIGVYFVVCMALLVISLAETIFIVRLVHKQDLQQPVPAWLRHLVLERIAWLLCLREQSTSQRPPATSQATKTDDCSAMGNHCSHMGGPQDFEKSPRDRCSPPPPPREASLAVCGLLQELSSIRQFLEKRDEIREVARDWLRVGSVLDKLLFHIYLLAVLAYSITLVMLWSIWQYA

[10] = molecular target: 5-ht5a (Homo sapiens, UniProt P47898); assay: PDSP screening affinity 5-ht5a; assay type: binding; conditions: 5-ht5a affinity
Chain of 5-ht5a (P47898 whole entry): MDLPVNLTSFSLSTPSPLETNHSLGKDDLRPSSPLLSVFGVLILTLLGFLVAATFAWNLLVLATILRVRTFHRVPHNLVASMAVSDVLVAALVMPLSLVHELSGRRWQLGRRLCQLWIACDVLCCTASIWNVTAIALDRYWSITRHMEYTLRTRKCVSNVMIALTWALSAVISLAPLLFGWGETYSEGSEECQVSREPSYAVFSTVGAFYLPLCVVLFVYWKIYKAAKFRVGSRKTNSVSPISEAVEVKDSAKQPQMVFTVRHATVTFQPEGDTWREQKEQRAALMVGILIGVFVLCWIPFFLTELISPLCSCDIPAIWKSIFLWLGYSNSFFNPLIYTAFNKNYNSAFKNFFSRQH

[11] = molecular target: 5-HT6 (Homo sapiens, UniProt P50406); assay: PDSP screening affinity 5-HT6; assay type: binding
Chain of 5-HT6 (P50406 whole entry): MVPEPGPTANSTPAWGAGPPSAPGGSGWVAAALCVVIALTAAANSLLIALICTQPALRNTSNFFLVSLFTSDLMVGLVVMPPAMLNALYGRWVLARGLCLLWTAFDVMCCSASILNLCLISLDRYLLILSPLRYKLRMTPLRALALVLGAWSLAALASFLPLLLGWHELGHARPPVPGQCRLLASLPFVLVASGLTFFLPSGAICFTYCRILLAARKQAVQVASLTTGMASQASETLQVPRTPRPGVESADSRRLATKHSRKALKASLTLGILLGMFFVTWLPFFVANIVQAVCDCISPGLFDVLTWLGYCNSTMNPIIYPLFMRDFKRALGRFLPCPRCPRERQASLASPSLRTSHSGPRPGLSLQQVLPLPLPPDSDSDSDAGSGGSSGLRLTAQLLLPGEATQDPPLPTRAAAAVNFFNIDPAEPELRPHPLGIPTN

[12] = molecular target: 5-HT7 (Homo sapiens, UniProt P34969); assay: PDSP screening affinity 5-HT7; assay type: binding
Chain of 5-HT7 (P34969 whole entry): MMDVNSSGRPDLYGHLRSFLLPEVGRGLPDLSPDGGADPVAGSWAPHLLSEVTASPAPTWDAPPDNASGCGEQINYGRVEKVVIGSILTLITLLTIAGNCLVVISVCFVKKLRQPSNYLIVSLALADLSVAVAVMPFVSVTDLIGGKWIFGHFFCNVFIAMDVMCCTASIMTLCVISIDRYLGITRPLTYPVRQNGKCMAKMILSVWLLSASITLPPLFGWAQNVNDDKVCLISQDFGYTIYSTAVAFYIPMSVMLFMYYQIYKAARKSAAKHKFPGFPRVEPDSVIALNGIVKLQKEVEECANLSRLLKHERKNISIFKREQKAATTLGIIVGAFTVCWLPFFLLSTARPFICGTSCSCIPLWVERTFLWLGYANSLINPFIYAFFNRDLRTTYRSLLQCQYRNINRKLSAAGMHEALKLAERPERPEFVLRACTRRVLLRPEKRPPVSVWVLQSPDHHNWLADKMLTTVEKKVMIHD

[13] = molecular target: r5-HT2A (Rattus norvegicus, UniProt P14842); assay: Ca2+ mobilization assay; assay type: cell-based; conditions: for EC50: r5-HT2A EC50, Ca2+ mobilization; for Emax: read-out: r5-HT2A Emax, percentage of the maximum response to 5-HT
Chain of r5-HT2A (P14842 whole entry): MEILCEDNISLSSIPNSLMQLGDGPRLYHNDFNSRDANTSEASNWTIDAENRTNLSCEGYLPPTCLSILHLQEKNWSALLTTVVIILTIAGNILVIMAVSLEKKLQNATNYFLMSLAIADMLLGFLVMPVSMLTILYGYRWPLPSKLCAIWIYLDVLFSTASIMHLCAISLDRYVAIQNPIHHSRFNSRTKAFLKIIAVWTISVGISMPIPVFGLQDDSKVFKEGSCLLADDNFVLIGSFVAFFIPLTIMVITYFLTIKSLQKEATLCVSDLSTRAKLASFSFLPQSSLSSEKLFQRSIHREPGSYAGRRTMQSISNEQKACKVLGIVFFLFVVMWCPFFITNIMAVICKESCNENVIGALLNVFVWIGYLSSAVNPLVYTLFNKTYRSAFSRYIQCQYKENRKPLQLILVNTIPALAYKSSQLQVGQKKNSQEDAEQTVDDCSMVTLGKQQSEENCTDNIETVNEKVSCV

[14] = molecular target: h5-HT2A (Homo sapiens, UniProt P28223); assay: Ca2+ mobilization assay; assay type: cell-based; conditions: for Emax: HEK293, read-out: h5-HT2A Emax, percentage of the maximum response to 5-HT
Chain of h5-HT2A (P28223 whole entry): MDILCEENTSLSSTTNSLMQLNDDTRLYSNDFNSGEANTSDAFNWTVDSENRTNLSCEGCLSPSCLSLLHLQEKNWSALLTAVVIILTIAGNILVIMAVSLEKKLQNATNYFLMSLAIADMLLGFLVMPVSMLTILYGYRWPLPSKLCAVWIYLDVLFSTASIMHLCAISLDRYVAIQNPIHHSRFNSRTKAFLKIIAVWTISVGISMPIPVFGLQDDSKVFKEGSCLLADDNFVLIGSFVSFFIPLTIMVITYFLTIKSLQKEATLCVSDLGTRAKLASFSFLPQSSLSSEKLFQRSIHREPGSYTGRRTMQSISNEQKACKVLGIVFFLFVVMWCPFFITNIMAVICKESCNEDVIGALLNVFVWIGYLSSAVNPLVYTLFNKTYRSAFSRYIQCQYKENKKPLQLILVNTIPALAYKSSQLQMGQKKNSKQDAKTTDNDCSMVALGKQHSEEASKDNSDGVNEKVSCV

[15] = molecular target: h5-HT2B (Homo sapiens, UniProt P41595); assay: Ca2+ mobilization assay; assay type: cell-based; conditions: for Emax: HEK293, read-out: h5-HT2B Emax
Chain of h5-HT2B (P41595 whole entry): as the sequence (P41595 whole entry) above

[16] = molecular target: T5, r5-HT2C (Rattus norvegicus, UniProt P08909); assay: Ca2+ mobilization assay; assay type: cell-based; conditions: for Emax: read-out: r5-HT2C Emax
T5 sequence (P08909 33-460): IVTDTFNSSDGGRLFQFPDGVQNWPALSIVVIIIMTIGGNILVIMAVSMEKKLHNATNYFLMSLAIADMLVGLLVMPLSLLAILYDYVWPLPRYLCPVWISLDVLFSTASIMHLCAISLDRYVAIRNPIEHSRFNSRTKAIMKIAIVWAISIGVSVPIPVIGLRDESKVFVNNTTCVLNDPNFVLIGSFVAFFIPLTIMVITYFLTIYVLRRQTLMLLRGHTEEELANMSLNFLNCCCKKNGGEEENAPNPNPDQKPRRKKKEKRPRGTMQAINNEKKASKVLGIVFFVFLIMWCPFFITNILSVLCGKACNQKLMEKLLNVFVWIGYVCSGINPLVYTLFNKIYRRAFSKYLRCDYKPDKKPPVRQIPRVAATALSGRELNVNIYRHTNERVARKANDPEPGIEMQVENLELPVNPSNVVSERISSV

[17] = molecular target: T6, h5-HT2C (Homo sapiens, UniProt P28335); assay: Ca2+ mobilization assay; assay type: cell-based; conditions: for Emax: HEK293, read-out: h5HT2C Emax; for EC50: h5HT2C EC50, Ca2+ mobilization
T6 sequence (P28335 33-458): T2 sequence (P28335 33-458)

[18] = system: Male C57BL/6J mice; assay: Mouse head twitch response; conditions: for max counts: HTR counts; for ED50: Mus musculus, sc, read-out: ED50 mg/kg (95% CI), mouse head twitch; for activity in the HTR assay (active / inactive): doses up to 30 mg/kg
[19] = molecular target: T2, human 5-HT2C receptor; assay: h5-HT2C affinity, antagonist radioligand [3H]mesulergine; assay type: binding
[20] = h5-HT2B EC50, Ca2+ mobilization
[21] = r5-HT2C EC50, Ca2+ mobilization
[22] = r5-HT2C pEC50 ± SEM, Ca2+ mobilization
[23] = h5-HT2B pEC50 ± SEM, Ca2+ mobilization, NA = not active, Emax ≤ 15%

T1 sequence (P28223 whole entry): as the sequence (P28223 whole entry) above

| Compound | Ki [1] | Ki [2] | Ki [3] | Ki ([4]; 5-HT2B pKi ± SEM) | Ki ([5]; 5-HT1A affinity) | Ki [6] | Ki [7] | Ki [8] | Ki [9] | Ki [10] | Ki ([11]; 5-HT6 affinity) | Ki ([12]; 5-HT7 affinity) | EC50 [13] | Emax [13] | EC50 [14] | Emax [14] | Emax [15] | Emax [16] | Emax [17] | EC50 [17] | further results |
| --- | --- | --- | --- | --- | --- | --- | --- | --- | --- | --- | --- | --- | --- | --- | --- | --- | --- | --- | --- | --- | --- |
| COc1ccc2[nH]cc(CCNCc3cccc(Br)c3)c2c1 [Compound 5e, N-(3-Bromobenzyl)-2-(5-methoxy-1H-indol-3-yl)ethan-1-amine] | 0.00676 µM | 0.00148 µM | 0.00562 µM | 0.00355 µM | 0.155 µM | 6.43 µM | 0.381 µM | > 10 µM | > 10 µM | 0.612 µM | 0.045 µM | 0.116 µM | 0.13 µM | 65.5 ± 0.8% | 0.013 µM | 73.8 ± 1.1% | 20 ± 2% | 112 ± 3% | 64 ± 8% | 0.321 µM | Ki ([4]; 5-HT2B affinity): 0.0036 µM; Ki ([11]; 5-HT6 pKi ± SEM): 0.0457 µM; Ki ([12]; 5-HT7 pKi ± SEM): 0.117 µM; EC50 [15, 20]: 0.029 µM; EC50 [16, 21]: 0.422 µM; EC50 [16, 22]: 0.417 µM; max counts ([18]; SC): 14.2; ED50 [18]: 5.18 mg/kg; activity in the HTR assay (active / inactive) ([18]; SC): active; magnitude of peak effect × vehicle ([18]; SC, mouse head twitch): 4.4 × vehicle; maximally effective dose ([18]; SC, mouse head twitch): 30 mg/kg |
| COc1ccc(CNCCc2c[nH]c3ccc(OC)cc23)cc1 [Compound 5c, N-(4-Methoxybenzyl)-2-(5-methoxy-1H-indol-3-yl)ethan-1-amine] | 0.0692 µM | 0.0105 µM | 0.0141 µM | 0.0324 µM | 0.076 µM | 1.06 µM | 0.161 µM | > 10 µM | > 10 µM | 2.39 µM | 0.353 µM | 0.037 µM | 0.19 µM | 75 ± 1.3% | 0.042 µM | 84.1 ± 1.3% | 81 ± 1% | 102 ± 2% | 112 ± 5% | 0.0751 µM | Ki [19]: 0.126 µM; Ki ([4]; 5-HT2B affinity): 0.033 µM; Ki ([12]; 5-HT7 pKi ± SEM): 0.0363 µM; EC50 [15, 23]: 0.0229 µM; EC50 [16, 22]: 0.0186 µM; activity in the HTR assay (active / inactive) ([18]; SC): None of the phenethylamines or tryptamines with 4-substituted N-benzyl groups, 4b, 4e, 5c, or 5f, was active |
| COc1cccc(CNCCc2c[nH]c3ccc(OC)cc23)c1 [Compound 5b, N-(3-Methoxybenzyl)-2-(5-methoxy-1H-indol-3-yl)ethan-1-amine] | 0.00776 µM | 0.00105 µM | 0.00589 µM |  | 0.335 µM | > 10 µM | 0.334 µM | > 10 µM | > 10 µM | 1.26 µM | 0.025 µM | 0.406 µM | 0.034 µM | 52.2 ± 0.9% | 0.0062 µM | 70 ± 1% | ≤ 15% | 102 ± 2% | 65 ± 5% | 0.178 µM | Ki [19]: 0.038 µM; Ki ([4]; 5-HT2B affinity): 0.0025 µM; Ki ([5]; 5-HT1A pKi ± SEM): 0.331 µM; EC50 [15, 20]: 0.949 µM; EC50 [16, 21]: 0.168 µM; EC50 [16, 22]: 0.166 µM; max counts ([18]; SC): 9.2; ED50 [18]: 3.28 mg/kg; activity in the HTR assay (active / inactive) ([18]; SC): active; active doses ([18]; SC, mouse head twitch): 10 mg/kg; magnitude of peak effect × vehicle ([18]; SC, mouse head twitch): 3.7 × vehicle; maximally effective dose ([18]; SC, mouse head twitch): 10 mg/kg; HTR at 30 mg/kg ([18]; biphasic bell-shaped dose–response, 30 mg/kg SC): inactive |
| COc1ccc2[nH]cc(CCNCc3cccc(C(F)(F)F)c3)c2c1 [Compound 5k, N-(3-Trifluoromethylbenzyl)-2-(5-methoxy-1H-indol-3-yl)ethan-1-amine] | 0.0282 µM | 0.00295 µM | 0.0148 µM | 0.0275 µM | 0.24 µM | > 10 µM | 0.278 µM | > 10 µM | > 10 µM | 3.09 µM | 0.087 µM | 0.262 µM | 0.77 µM | 69.6 ± 1.4% | 0.087 µM | 75.5 ± 1.2% | 51 ± 2% | 104 ± 2% | 75 ± 5% | 0.512 µM | Ki [19]: 0.102 µM; EC50 [15, 20]: 0.107 µM; EC50 [16, 21]: 0.162 µM |
| COc1ccc2[nH]cc(CCNCc3cccc(SC)c3)c2c1 [Compound 5l, N-(3-Methylthiobenzyl)-2-(5-methoxy-1H-indol-3-yl)ethan-1-amine] | 0.00891 µM | 0.00309 µM | 0.00209 µM | 0.00407 µM | 0.127 µM | > 10 µM | 0.659 µM | > 10 µM | > 10 µM | 0.841 µM | 0.0097 µM | 0.136 µM | 0.12 µM | 32 ± 0.7% | 0.032 µM | 46.9 ± 0.8% |  | 101 ± 2% | 60 ± 4% | 0.283 µM | Ki [19]: 0.0132 µM; EC50 [16, 21]: 0.205 µM |
| COc1ccc2[nH]cc(CCNCc3cccc(F)c3)c2c1 [Compound 5g, N-(3-Fluorobenzyl)-2-(5-methoxy-1H-indol-3-yl)ethan-1-amine] | 0.0214 µM |  | 0.00871 µM | 0.0219 µM | 0.295 µM | 2.67 µM | 0.319 µM | > 10 µM | > 10 µM | 2.45 µM | 0.059 µM | 0.242 µM | 0.08 µM | 69.1 ± 1.3% | 0.01 µM | 89.3 ± 1.1% | 37 ± 1% | 100 ± 3% | 83 ± 5% | 0.192 µM | Ki [19]: 0.0479 µM; EC50 [15, 23]: 0.038 µM; EC50 [16, 21]: 0.046 µM; max counts ([18]; SC): 14.5; ED50 [18]: 3.33 mg/kg; magnitude of peak effect × vehicle ([18]; SC, mouse head twitch): 7.3 × vehicle; maximally effective dose ([18]; SC, mouse head twitch): 10 mg/kg |
